Measured values published in PubChem BioAssay AID1963865 (Molecular Pharmacology Branch, DTP, NCI, 2024).

Test system: KRAS PDC multicell spheroid viability
Assay: Anticancer human tumor 825966-067-R-J1-PDC patient-derived colon carcinoma cell line growth inhibition [KRAS2]
Settings: for viability, T/C: stronger effect = lower value; active means viability on the fitted dose curve at most 10% of control; inactive means the rest
In short: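 Combination screen of spheroid viability in tumor-cell co-cultures with endothelial (HUVEC) and mesenchymal stem cell stroma. Each agent was tested in half-log dilutions, topping at clinical Cmax or at 10 microM without a known Cmax.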

[1] = curve of first compound, second compound 0.1 µM
[2] = curve of first compound, second compound 0.316 µM
[3] = curve of first compound, second compound 1 µM
[4] = curve of first compound, second compound 3.16 µM
[5] = second compound 0.1 µM, first compound 0.0316 µM
[6] = second compound 0.1 µM, first compound 0.1 µM
[7] = second compound 0.1 µM, first compound 0.316 µM
[8] = second compound 0.1 µM, first compound 1 µM
[9] = second compound 0.1 µM, first compound 3.16 µM
[10] = second compound 0.316 µM, first compound 0.0316 µM
[11] = second compound 0.316 µM, first compound 0.1 µM
[12] = second compound 0.316 µM, first compound 0.316 µM
[13] = second compound 0.316 µM, first compound 1 µM
[14] = second compound 0.316 µM, first compound 3.16 µM
[15] = second compound 1 µM, first compound 0.0316 µM
[16] = second compound 1 µM, first compound 0.1 µM
[17] = second compound 1 µM, first compound 0.316 µM
[18] = second compound 1 µM, first compound 1 µM
[19] = second compound 1 µM, first compound 3.16 µM
[20] = second compound 3.16 µM, first compound 0.0316 µM
[21] = second compound 3.16 µM, first compound 0.1 µM
[22] = second compound 3.16 µM, first compound 0.316 µM
[23] = second compound 3.16 µM, first compound 1 µM
[24] = second compound 3.16 µM, first compound 3.16 µM
[25] = curve of first compound, second compound 10 µM
[26] = second compound 0.1 µM, first compound 0.01 µM
[27] = second compound 0.316 µM, first compound 0.01 µM
[28] = second compound 1 µM, first compound 0.01 µM
[29] = second compound 3.16 µM, first compound 0.01 µM
[30] = second compound 10 µM, first compound 0.01 µM
[31] = second compound 10 µM, first compound 0.0316 µM
[32] = second compound 10 µM, first compound 0.1 µM
[33] = second compound 0.1 µM, first compound 0.000316 µM
[34] = second compound 0.1 µM, first compound 0.001 µM
[35] = second compound 0.1 µM, first compound 0.00316 µM
[36] = second compound 0.316 µM, first compound 0.000316 µM
[37] = second compound 0.316 µM, first compound 0.001 µM
[38] = second compound 0.316 µM, first compound 0.00316 µM
[39] = second compound 1 µM, first compound 0.000316 µM
[40] = second compound 1 µM, first compound 0.001 µM
[41] = second compound 1 µM, first compound 0.00316 µM
[42] = second compound 3.16 µM, first compound 0.000316 µM
[43] = second compound 3.16 µM, first compound 0.001 µM
[44] = second compound 3.16 µM, first compound 0.00316 µM
[45] = second compound 10 µM, first compound 0.000316 µM
[46] = second compound 10 µM, first compound 0.001 µM
[47] = second compound 10 µM, first compound 0.00316 µM
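Further: spheroids exposed to compounds for 7 days.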
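Wherever viability, T/C is given: 100% = DMSO vehicle control viability.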

CCNC(=O)CC1N=C(c2ccc(Cl)cc2)c2cc(OC)ccc2-n2c(C)nnc21 (stereo not drawn) + C=CC(=O)N1CCN(c2nc(OCC3CCCN3C)nc3c2CCN(c2cccc4cccc(C)c24)C3)CC1CC#N
> 10000 nM: IC50 (curve of first compound, second compound 0.0316 µM) | IC50 [1] | IC50 [2] | IC50 [3]
725 nM: IC50 [4]
inactive: viability, T/C (second compound 0.0316 µM, first compound 0.0316 µM) 80.1% | viability, T/C (second compound 0.0316 µM, first compound 0.1 µM) 112% | viability, T/C (second compound 0.0316 µM, first compound 0.316 µM) 118% | viability, T/C (second compound 0.0316 µM, first compound 1 µM) 115% | viability, T/C (second compound 0.0316 µM, first compound 3.16 µM) 82.2% | viability, T/C (second compound 0.0316 µM, first compound 10 µM) 75.9% | viability, T/C [5] 79.5% | viability, T/C [6] 112% | viability, T/C [7] 113% | viability, T/C [8] 89.5% | viability, T/C [9] 79.4% | viability, T/C (second compound 0.1 µM, first compound 10 µM) 75.9% | viability, T/C [10] 90% | viability, T/C [11] 119% | viability, T/C [12] 121% | viability, T/C [13] 118% | viability, T/C [14] 69.7% | viability, T/C (second compound 0.316 µM, first compound 10 µM) 72.4% | viability, T/C [15] 91.8% | viability, T/C [16] 110% | viability, T/C [17] 126% | viability, T/C [18] 85.8% | viability, T/C [19] 44.4% | viability, T/C (second compound 1 µM, first compound 10 µM) 59.5% | viability, T/C [20] 109% | viability, T/C [21] 125% | viability, T/C [22] 87.6% | viability, T/C [23] 20.3% | viability, T/C [24] 55.5% | viability, T/C (second compound 3.16 µM, first compound 10 µM) 30.7%

CC(=O)OC12COC1CC(O)C1(C)C(=O)C(O)C3=C(C)C(OC(=O)C(O)C(NC(=O)OC(C)(C)C)c4ccccc4)CC(O)(C(OC(=O)c4ccccc4)C21)C3(C)C (stereo not drawn) + CNCc1ccccc1-c1csc(C(C)Nc2nc(C)nc3cc(OC)c(OC)cc23)c1
< 10 nM: IC50 [1] | IC50 [2] | IC50 [3] | IC50 [4] | IC50 [25]
active: viability, T/C [29] 0.14% | viability, T/C [20] 15.2% | viability, T/C [21] 1.18% | viability, T/C [22] 0.07% | viability, T/C [23] 0.57% | viability, T/C [30] 2.23% | viability, T/C [31] 1.24% | viability, T/C [32] 0.96% | viability, T/C (second compound 10 µM, first compound 0.316 µM) 0.12% | viability, T/C (second compound 10 µM, first compound 1 µM) 0.12% | viability, T/C (second compound 10 µM, first compound 3.16 µM) 0.18%
inactive: viability, T/C [26] 21.7% | viability, T/C [5] 14.4% | viability, T/C [6] 17.6% | viability, T/C [7] 15.7% | viability, T/C [8] 18.1% | viability, T/C [9] 23.4% | viability, T/C [27] 17.2% | viability, T/C [10] 10.2% | viability, T/C [11] 11.7% | viability, T/C [12] 11.5% | viability, T/C [13] 14.3% | viability, T/C [14] 18.6% | viability, T/C [28] 12.6% | viability, T/C [15] 17.5% | viability, T/C [16] 11.6% | viability, T/C [17] 13% | viability, T/C [18] 15.5% | viability, T/C [19] 16.2% | viability, T/C [24] 24.8%

CC(C)n1nc(-c2ccc3oc(N)nc3c2)c2c(N)ncnc21 + C=CC(=O)N1CCN(c2nc(=O)n(-c3c(C)ccnc3C(C)C)c3nc(-c4c(O)cccc4F)c(F)cc23)C(C)C1
inactive: viability, T/C [33] 113% | viability, T/C [34] 116% | viability, T/C [35] 114% | viability, T/C [26] 147% | viability, T/C [5] 130% | viability, T/C [6] 142% | viability, T/C [36] 112% | viability, T/C [37] 96.7% | viability, T/C [38] 118% | viability, T/C [27] 130% | viability, T/C [10] 154% | viability, T/C [11] 101% | viability, T/C [39] 106% | viability, T/C [40] 102% | viability, T/C [41] 129% | viability, T/C [28] 138% | viability, T/C [15] 89.9% | viability, T/C [16] 107% | viability, T/C [42] 103% | viability, T/C [43] 99.5% | viability, T/C [44] 103% | viability, T/C [29] 119% | viability, T/C [20] 114% | viability, T/C [21] 114% | viability, T/C [45] 89.6% | viability, T/C [46] 94.7% | viability, T/C [47] 106% | viability, T/C [30] 93.5% | viability, T/C [31] 79.4% | viability, T/C [32] 76.5%
> 100 nM: IC50 [1] | IC50 [2] | IC50 [3] | IC50 [4] | IC50 [25]

CC(=O)Nc1cccc(-n2c(=O)n(C3CC3)c(=O)c3c(Nc4ccc(I)cc4F)n(C)c(=O)c(C)c32)c1 + CNCc1ccccc1-c1csc(C(C)Nc2nc(C)nc3cc(OC)c(OC)cc23)c1
23.9 nM: IC50 [1]
active: viability, T/C [44] 0.36% | viability, T/C [29] 0.15% | viability, T/C [20] 0.26% | viability, T/C (second compound 10 µM, first compound 0.0001 µM) 0.16% | viability, T/C [45] 0.14% | viability, T/C [46] 0.13% | viability, T/C [47] 0.11% | viability, T/C [30] 0.12% | viability, T/C [31] 0.17%
17.1 nM: IC50 [3]
inactive: viability, T/C (second compound 0.1 µM, first compound 0.0001 µM) 89.5% | viability, T/C [33] 107% | viability, T/C [34] 108% | viability, T/C [35] 107% | viability, T/C [26] 92.9% | viability, T/C [5] 35.7% | viability, T/C (second compound 0.316 µM, first compound 0.0001 µM) 88.3% | viability, T/C [36] 97.9% | viability, T/C [37] 105% | viability, T/C [38] 108% | viability, T/C [27] 106% | viability, T/C [10] 42.9% | viability, T/C (second compound 1 µM, first compound 0.0001 µM) 96.1% | viability, T/C [39] 98.2% | viability, T/C [40] 112% | viability, T/C [41] 92.2% | viability, T/C [28] 78.5% | viability, T/C [15] 18.1% | viability, T/C (second compound 3.16 µM, first compound 0.0001 µM) 28.4% | viability, T/C [42] 51.9% | viability, T/C [43] 16.4%
27.5 nM: IC50 [2]
< 0.1 nM: IC50 [4] | IC50 [25]

O=C(c1cc(Cc2n[nH]c(=O)c3ccccc23)ccc1F)N1CCN(C(=O)C2CC2)CC1
inactive: viability, T/C (compound 0.1 µM) 88.5% [middle of 5 runs] | viability, T/C (compound 3.16 µM) 79.6% [middle of 5 runs]
> 10000 nM: IC50 (curve of compound)
